{"source": "patent US20240366602A1", "about": "“COMBINATION THERAPY OF APELIN RECEPTOR AGONIST AND GLP-1 RECEPTOR AGONIST FOR TREATING A DISEASE OR CONDITION ASSOCIATED WITH WEIGHT GAIN” (BioAge Labs, Inc., priority 2023, published 2024)", "key": {"[1]": {"tested_on": "Diet-Induced Obese (DIO) mice", "test": "Pilot study of BGE-105 in aged DIO mice treated with semaglutide (Example 1)", "assay_type": "in vivo", "description": "Endpoints and measurements used to assess effects included: • Body Weight, Clinical Evaluation & Body Condition Score; • Group Food Intake, Water Intake; • Fed Glucose; • Body composition by Echo-MRI; • Baseline and endpoint grid hang tests; and • Endpoint tissue harvest.\n25-month-old (aged) C57BL/6 female mice were used in this study. Diet for 25-month-old C57BL/6 mice included lean control D12450B (10 kcal % fat), or a diet induced-obesity (DIO) diet D12492 (60 kcal % fat) (Research Diets, Inc.). The study duration was 37 days. Treatment started on Day 0 and ended on Day 35-36.\nSemaglutide was purchased from MCE (Cat No. HY-114118/CS-0069903)\nMice from all Groups (1-5) were measured with fed glucose, and body weight and body composition for randomization.\nBody weight, group food intake, group water intake, body composition and grid hang tests were measured and monitored during the study.\nOn the day of necropsy, blood plasma and tissue samples were collected."}, "[2]": {"tested_on": "healthy volunteers aged≥65 years", "test": "Phase 1b Part B (MD) 10-day bed rest muscle atrophy study", "assay_type": "in vivo, human", "description": "In Part B, of the 30 subjects enrolled, all of which are ≥65 years of age. […] In the multi-dose cohorts (1A, 1B, 1C), PD parameters for effects on changes in insulin sensitivity and muscle indices during a period of bed rest are measured and evaluated to better inform decisions regarding choice of dose and direction of further development.\nIn each of the 3 cohorts in Part B, 30 total subjects are enrolled to receive treatment in either Cohort 1A, Cohort 1B, or Cohort 1C. Cohort 1A includes 10 subjects who all receive placebo NS over a 1 hour infusion for 10 days on Days 1 through Day 10. […] Patients are at bed rest for the entire 10-day duration of treatment.\nVital signs was collected daily and include diastolic and systolic blood pressure and pulse. On Days −1, 1, 5, and 10, vital signs was collected at the following timepoints: predose (additionally temperature and respiratory rate), 0.25 h, 0.5 h, 0.75 h, 1 h, 2 h, 3 h, 4 h, 6 h, 8 h, and 12 h after the start of study drug infusion. Vital signs will also be collected on Day 10 (23 h) and before discharge on Day 12. • D. Safety laboratory tests include complete blood count, clinical chemistries, and urinalysis. • E. Samples are to be collected in the morning. Subjects are to be fasting from 10:00 PM onward (min 8 hours fast) each night but may drink as much water as requested. • F. ECGs are to be taken predose and immediately following the completion of the 1-hour infusion. On Day 11, an ECG will also be taken again 23 h after the start of the Day 10 study drug infusion. • G. AEs was recorded from the start time of the first consumption of heavy water until the end of the subject's participation in the study. At discharge from the unit, any ongoing AEs was documented in source and in EDC was followed until the event is resolved or stabilized. […] On Days 1, 5, and 10, PK samples were collected at the following timepoints: predose, 0.25 h, 0.5 h, 0.75 h, 1 h, 2 h, 3 h, 4 h, 6 h, 8 h, and 12 h after the start of study drug infusion. Samples will also be collected 24 h (Day 11), 48 h (Day 12), 72 h (Day 13), and 96 h (Day 14) after the start of the last infusion. PK samples were taken from the opposite arm used for the IV infusion. • J. Continuous cardiac ECG telemetry monitoring was used starting on Day 1 pre-dose and continuing through the end of dosing on Day 10. • K. Subjects were asked to remain in their beds, apart from using a wheelchair to be taken to the shower and they will shower seated. They will also use a wheelchair to get to and from the bathroom. When not in bed, subjects were in a wheelchair. • L. Subjects will wear the pneumatic compression cuffs the entire duration of bed rest, except for when in a wheelchair to use the bathroom and shower. • M. Muscle circumference, cross-sectional area, color flow analysis, AP diameter, and echo density of the vastus lateralis and gastrocnemius were measured by ultrasound. Ultrasound imaging must be conducted by the same technician throughout the study for all subjects. […]"}, "immobilized aged mice": {"tested_on": "immobilized aged mice", "settings": "immobilized aged mice (20-months-old), orally dosed, vs control vehicle; cited from earlier work"}, "[3]": {"tested_on": "immortalized muscle precursor cells from human patients", "settings": "cited from earlier work"}, "[4]": {"tested_on": "healthy older adult humans", "test": "BGE-105 in immobilized human muscles, 10 days bed rest (Example 11)", "assay_type": "in vivo", "settings": "200 mg of BGE-105 a day", "description": "Two groups of healthy older adult humans (e.g., n=10 per group) who are moderately active remain in bed continuously for 10 days, except for toileting, and they consume a eucaloric diet providing the recommended dietary allowance for protein (0.8 g/kg of protein per day). […] Measurements before and after bed rest include muscle function and protein synthesis."}, "[5]": {"settings": "10-day bed rest, BGE-105 240 mg daily (cohort MD 1B)"}, "[6]": {"settings": "10-day bed rest, BGE-105 240 mg daily (cohort MD 1B), vastus lateralis ultrasound"}, "[7]": {"settings": "10 days of bed rest, ultrasound"}, "[8]": {"settings": "BGE-105 240 mg once daily IV for 10 days vs placebo"}}, "note": "Where “and” joins values, the source holds several entries; their conditions need not be identical. Equal values may be shown once. Entries after “also recorded” stand apart in the source; their conditions may differ.", "data": [{"molecule": "COc1cccc(OC)c1-n1c(NS(=O)(=O)[C@@H](C)[C@H](C)c2ncc(C)cn2)nnc1-c1cncc(C)c1", "note": "[BGE-105, (2S,3R)—N-(4-(2,6-dimethoxyphenyl)-5-(5-methyl-3-pyridinyl)-4H-1,2,4-triazol-3-yl)-3-(5-methyl-2-pyrimidinyl)-2-butanesulfonamide]", "values": [{"measurement": "Muscle function, grid hang test (latency before mice fell from the grid)", "setting": "[1]; semaglutide 100 nmol/kg, BGE-105 1.1 mg/mL, combination compared to either agent alone", "result": "increased muscle function"}, {"measurement": "Weight of perigonadal fat at study endpoint", "setting": "[1]; semaglutide 100 nmol/kg, BGE-105 1.1 mg/mL, combination loss statistically significant", "result": "statistically insignificant loss in perigonadal fat"}, {"measurement": "Quadriceps weight as a percentage of total body weight at study endpoint", "setting": "[1]; semaglutide 100 nmol/kg, BGE-105 1.1 mg/mL, vs DIO control mice", "result": "increased quadricep weight as a percentage of total body weight, but the increases did not achieve statistical significance"}, {"measurement": "neutrophil gelatinase-associated lipocalin (NGAL) level at study endpoint", "setting": "[1]; vs DIO control mice", "result": "decreased plasma NGAL level"}, {"measurement": "Muscle grade (progression), % change: baseline to D10", "setting": "[2]; [5]", "result": "−9", "unit": "%"}, {"measurement": "Thigh circumference, % change: baseline to D10", "setting": "[2]; [5]", "result": "+0.8%"}, {"measurement": "Cumulative protein synthesis, % change: baseline to D10", "setting": "[2]; 10-day bed rest, BGE-105 240 mg daily (cohort MD 1B), biopsy", "result": 22, "unit": "%"}, {"measurement": "AP diameter (thickness), % change: baseline to D10", "setting": "[2]; [6]", "result": "−8.0", "unit": "%"}, {"measurement": "Cross-sectional area (CSA), % change: baseline to D10", "setting": "[2]; [6]", "result": "−5.7", "unit": "%"}, {"measurement": "Muscle quality grade worsened (grade 1 to grade 2), number of volunteers", "setting": "[2]; 10-day bed rest, ultrasound echo density, placebo 8 of 10", "result": "1 of 11 and 1 out of 11 and (1 out of 11)"}, {"measurement": "Synthesis of myofibrillar structural proteins such as myosin and troponin", "setting": "[2]; 10 days bed rest, D2O method and muscle biopsy", "result": "preserved compared to placebo"}, {"measurement": "Muscle protein synthesis, muscle microbiopsy of vastus lateralis", "setting": "[2]; 10 days of bed rest, bed rest-induced decrease, vs placebo", "result": "significantly ameliorated; also recorded: elevated rate of muscle protein synthesis"}, {"measurement": "Improvement in thigh circumference relative to placebo", "setting": "[2]; 10 days of bed rest, n=11", "result": 100, "unit": "%"}, {"measurement": "Improvement in vastus lateralis cross-sectional area relative to placebo", "setting": "[2]; [7]", "result": 58, "unit": "%"}, {"measurement": "Improvement in vastus lateralis thickness relative to placebo", "setting": "[2]; [7]", "result": 73, "unit": "%"}, {"measurement": "Reduction in loss of vastus lateralis cross-sectional area", "setting": "[2]; [8]", "result": "> 50", "unit": "%"}, {"measurement": "Reduction in loss of vastus lateralis muscle thickness", "setting": "[2]; [8]", "result": 75, "unit": "%"}, {"measurement": "Mean normalized fraction synthetic rate", "setting": "[2]; BGE-105 treated patients with elevated rate, after 10 days of bed rest", "result": "0.18-2.2"}, {"measurement": "Improvement in muscle dimension (muscle size by ultrasound)", "setting": "[2]; Cohort 1B vs Cohort 1A", "result": "~75", "unit": "%"}, {"measurement": "Physical activity, step ratio by wearable activity device", "setting": "[2]; Day 10 through Day 60 (post-bedrest), vs placebo", "result": "increase in physical activity; also recorded: more pronounced in the BGE-105 group"}, {"measurement": "Reduction of the cross-sectional area of the Vastus Lateralis", "setting": "[2]; after 10-day bed rest, mean percent change from baseline, placebo 19.47%", "result": 8.041, "unit": "%"}, {"measurement": "Reduction of vastus lateralis diameter", "setting": "[2]; after 10-day bed rest, mean percent change from baseline, placebo 21.18%", "result": 5.664, "unit": "%"}, {"measurement": "Patients with elevated rate of muscle protein synthesis", "setting": "[2]; after 10 days of bed rest, placebo 3 out of 10", "result": "8 out of 11"}, {"measurement": "Patients with elevated rate of muscle protein synthesis", "setting": "[2]; after 10 days of bed rest, placebo 30%", "result": "about 72.7%"}, {"measurement": "Increase in thigh circumference", "setting": "[2]; after the 10-day bed rest period, placebo 6.438% reduction", "result": 0.8, "unit": "%"}, {"measurement": "Echo density measurements, increase", "setting": "[2]; treatment group (Cohort 1B, 240 mg daily), placebo 6.4% decrease", "result": 0.8, "unit": "%"}, {"measurement": "Muscle atrophy", "setting": "immobilized aged mice", "result": "significantly reduced muscle atrophy"}, {"measurement": "Cell growth and differentiation", "setting": "[3]", "result": "dose-dependent relationship between cell growth and differentiation, and concentration of BGE-105"}, {"measurement": "Muscle atrophy in immobilized human muscles", "setting": "[4]", "result": "prevent or attenuate muscle atrophy"}]}]}
